This is an account of results in PubChem BioAssay AID1330 (NMMLSC, 2008).

Calls of active or inactive are those of the source. No rule for the calls is given here.

By EC50 is commonly meant the midpoint of the concentration-response curve.

Sequence of Bcl-2-like protein 2 (Homo sapiens) (Q92843 whole entry, looked up): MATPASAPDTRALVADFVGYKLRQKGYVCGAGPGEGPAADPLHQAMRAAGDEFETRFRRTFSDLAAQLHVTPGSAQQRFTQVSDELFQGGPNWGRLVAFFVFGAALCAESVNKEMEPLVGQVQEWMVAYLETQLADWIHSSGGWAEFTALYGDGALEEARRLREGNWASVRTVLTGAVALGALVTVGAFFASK

The test concerns the target Bcl-2-like protein 2 (Homo sapiens) (UniProt Q92843). In words: modulators of Bim-Bcl-W protein interaction, dose response, biochemical, multiplexed, bead-based flow cytometry, fluorescence (AID 1330). The note with it: Bim-Bcl-W binding.
Regarding `CCC(=O)N(CC)C1=C(O)c2ccccc2C(=O)C1=O`, the EC50 result is “inactive”.

With `COc1cccc(/C=N/Nc2nn3cnnc3c3ccccc23)c1O`, the EC50 entry is “inactive”. Then `O=[N+]([O-])c1ccc(N/N=C/c2ccc(O)c(O)c2O)c(S(=O)(=O)N2CCOCC2)c1`, with 3.52 µM; and `O=C(N/N=C/c1ccc(O)c(O)c1O)/C(=C/c1ccc([N+](=O)[O-])cc1)NC(=O)c1ccccc1`, with “inactive”; and `COc1cccc(/C=N/Nc2nn3cnnc3c3ccccc23)c1`, with “inactive”.
